Converted amounts (≈) assume the structure as drawn.
Assays:
Format in all cases: cell-based
[1] = test system: Malassezia pachydermatis (IFM56528); assay: Antifungal activity test, inhibitory concentration by WST-8 viability in 96-well plate (Test Example 11); conditions: M. pachydermatis IFM56528, 32° C. for 72 hours; for MIC: viability 0%, read-out: Inhibitory concentration MIC100; for MIC50: viability 50%
Procedure: Test Example 11: Antifungal Activity Test
Test Compounds: Compound No. 1 and Compound No. 6
Test Microbial Strain: Malassezia Pachydermatis (IFM56528)
The Malassezia microbe (Malassezia pachydermatis) cultured for 5 to 7 days in a Sabouraud dextrose medium (1% peptone, 4% dextrose) was suspended in physiological saline and a Malassezia microbe suspension was prepared in such a way as to have an absorbance of 0.0025 at 600 nm. The microbe suspension was placed in a 96-well plate at 190 µL/well, and 10 µL of the test compound dissolved in DMSO was added thereto in such a way as to provide a final concentration of 500, 250, 125, 62.5, 31.25, 16, 8, 4, 2, 1, or 0.5 ppm, and the 96-well plate was subjected to culturing at 32° C. for 72 hours. After culturing, 20 µL each of WST-8 (viable cell counting reagent, manufactured by Nacalai Tesque, Inc.) was added, and the 96-well plate was kept warm at 32° C. for 5 hours to develop a color. The absorbance at 450 nm was measured using a microplate reader (SpectraMax M2, manufactured by Molecular Devices, LLC). The absorbance of a well to which the test compound was added (absorbance in the inventive plot) and the absorbance of a well in the solvent to which the test compound was not added (absorbance in the non-agent treated plot) were measured, the viability (%) of the Malassezia microbe was determined according to the following expression, and the agent concentration at which the viability was 0% was defined as the minimum inhibitory concentration (MIC100). Further, the agent concentration at which the viability was 50% was defined as the half inhibitory concentration (MIC50).
[…] = [(absorbance in non-agent treated plot - absorbance in inventive plot)/absorbance in non-agent treated plot] × 100

[2] = test system: M. restricta (IMF55992 strain); assay: Antimicrobial activity against microbes of genus Malassezia: colony formation inhibition (Test Example 2); conditions: 1 min, final concentration 500 ppm, 1 minute contact, read-out: Colony formation inhibition rate (%)
Procedure: (§1) The Malassezia microbe (Malassezia pachydermatis) cultured for 5 to 7 days in a Sabouraud medium (1% peptone, 4% dextrin, 1.5% agar) supplemented with 0.5% of Tween 40 (polyoxyethylene sorbitan monopalmitate: manufactured by Kanto Chemical Co., Inc.) was suspended in physiological saline and a suspension thereof was prepared in such a way as to have an absorbance of 0.25 at 550 nm. Thereto, the test compound dissolved in DMSO was added in such a way as to provide a final concentration of 500 ppm, and after 1 minute, 10 µL of the suspension and 10 mL of physiological saline were placed in a syringe and stirred, and the syringe was connected to a 37 mm Quality Monitor (manufactured by Pall Corporation) followed by filtration and washing. The membrane filter was impregnated as it was with a Sabouraud medium supplemented with 1% of Tween80 (polyoxyethylene sorbitan monooleate: manufactured by Kanto Chemical Co., Ltd.) and subjected to culturing at 32° C. for 72 hours, the number of colonies formed there (number of colonies in the inventive plot) and the number of colonies in a solvent to which the test compound was not added (the number of colonies in the non-agent treated plot) were measured, and the colony formation inhibition rate (%) was determined according to the following expression. Colony formation inhibition rate (%) = [(number of colonies in non-agent treated plot - number of colonies in inventive plot)/number of colonies in non-agent treated plot] × 100 Test compound: Compound No. 1 (final concentration of 500 ppm) Test microbial strains: Malassezia pachydermatis (IFM56528 strain), M. furfur (IMF55951 strain), M. sympodialis (IMF48588 strain), M. globosa (IMF51946 strain), and M. restricta (IMF55992 strain) The colony formation inhibition rate for each of the test strains was determined by the same method as in Test Example 1.

[3] = test system: M. furfur (IMF55951 strain); assay: as above; conditions: 1 min, final concentration 500 ppm, 1 minute contact, read-out: Colony formation inhibition rate (%)
Procedure: as §1

[4] = test system: M. globosa (IMF51946 strain); assay: as above; conditions: 1 min, final concentration 500 ppm, 1 minute contact, read-out: Colony formation inhibition rate (%)
Procedure: as §1

[5] = test system: M. sympodialis (IMF48588 strain); assay: as above; conditions: 1 min, final concentration 500 ppm, 1 minute contact, read-out: Colony formation inhibition rate (%)
Procedure: as §1

[6] = test system: Microsporum canis (NBRC7863); assay: Antimicrobial activity test, minimum inhibitory concentration (Test Example 5); conditions: Sabouraud media, 25° C. for 120 hours
Procedure: Test Example 5: Antimicrobial Activity Test Test Compound: Compound No. 6 Test Microbial Strain: Microsporum Canis (NBRC7863) The strain was cultured in a Sabouraud medium and then suspended in PBS containing Tween80 (1% (V/V)), the resulting suspension was filtered through a cell strainer (φ40 µm), spores were recovered from the filtrate by centrifugation (3500 rpm, 5 minutes) and washed twice with physiological saline, and then a spore suspension was prepared (1 × 10^6 spores/mL). 50 µL of the spore suspension was inoculated into Sabouraud media to which compound No. 6 dissolved in DMSO was added to have various concentrations. After culturing at 25° C. for 120 hours, the presence or absence of microbial growth was investigated, and the minimum inhibitory concentration was determined.

[7] = test system: Staphylococcus pseudointermedius (JCM 17571); assay: Antimicrobial activity test, minimum bactericidal concentration after 1 minute contact (Test Example 6); conditions: JCM17571, S. pseudintermedius JCM 17571, then LB medium 30° C. for 72 hours, read-out: Minimum bactericidal concentration (MBC100)
Procedure: Test Example 6: Antimicrobial Activity test Test Compound: Compound No. 6 Test Microbial Strain: Staphylococcus Pseudointermedius (JCM 17571) The staphylococcus (Staphylococcus pseudointermedius) cultured for 24 hours on a Luria Broth (LB) agar medium plate (peptone, yeast extract, sodium chloride, agar, Invitrogen) was suspended in physiological saline, and a suspension thereof was prepared in such a way as to have an absorbance of 0.025 at 600 nm. Thereto, the test compound dissolved in DMSO was added in such a way as to provide a final concentration of 200, 100, 50, or 25 ppm, and after 1 minute, 10 µL of the suspension and 10 mL of physiological saline were placed in a syringe and stirred, and the syringe was connected to a 37 mm Quality Monitor (manufactured by Pall Corporation) followed by filtration and washing twice with 10 mL of physiological saline. The membrane filter was impregnated as it was with an LB medium and subjected to culturing at 30° C. for 72 hours, the presence or absence of colony growth was investigated, and the minimum bactericidal concentration (MBC100) was determined.

| MIC90 [1] | MIC [1] | MIC50 [1] | MIC [6] | Compound | inhibition at 500 ppm [2] | inhibition at 500 ppm [3] | inhibition at 500 ppm [4] | inhibition at 500 ppm [5] | MBC [7] |
| --- | --- | --- | --- | --- | --- | --- | --- | --- | --- |
| 16 µg/mL (≈ 73.5 µM) | 16 µg/mL (≈ 73.5 µM) | 8 µg/mL (≈ 36.8 µM) |  | Cc1ccc(-c2nc(C#N)[nH]c2Cl)cc1 [Compound No. 1, 5-Chloro-4-(4-methylphenyl)-1H-imidazole-2-carbonitrile] | 100% | 100% | 97% | 100% |  |
| 4 µg/mL (≈ 15.9 µM) | 4 µg/mL (≈ 15.9 µM) | 2 µg/mL (≈ 7.93 µM) | 125 µg/mL (≈ 496 µM) | Cc1ccc(-c2nc(C#N)[nH]c2Cl)cc1Cl [Compound No. 6, 5-chloro-4-(3-chloro-4-methylphenyl)-1H-imidazole-2-carbonitrile] |  |  |  |  | 50 µg/mL (≈ 198 µM) |

From US20230255939A1, “Antimicrobial Agent for Non-Human Animal” (ISHIHARA SANGYO KAISHA, LTD, priority 2020, published 2023)
